{"source": "paper PMC9469100", "about": "“Turning Nonselective Inhibitors of Type I Protein Arginine Methyltransferases into Potent and Selective Inhibitors of Protein Arginine Methyltransferase 4 through a Deconstruction–Reconstruction and Fragment-Growing Approach” (Journal of Medicinal Chemistry, 2022)", "key": {"PRMT3": {"biological_target": "PRMT3 (Homo sapiens, UniProt O60678)", "sequence (O60678 2-531)": "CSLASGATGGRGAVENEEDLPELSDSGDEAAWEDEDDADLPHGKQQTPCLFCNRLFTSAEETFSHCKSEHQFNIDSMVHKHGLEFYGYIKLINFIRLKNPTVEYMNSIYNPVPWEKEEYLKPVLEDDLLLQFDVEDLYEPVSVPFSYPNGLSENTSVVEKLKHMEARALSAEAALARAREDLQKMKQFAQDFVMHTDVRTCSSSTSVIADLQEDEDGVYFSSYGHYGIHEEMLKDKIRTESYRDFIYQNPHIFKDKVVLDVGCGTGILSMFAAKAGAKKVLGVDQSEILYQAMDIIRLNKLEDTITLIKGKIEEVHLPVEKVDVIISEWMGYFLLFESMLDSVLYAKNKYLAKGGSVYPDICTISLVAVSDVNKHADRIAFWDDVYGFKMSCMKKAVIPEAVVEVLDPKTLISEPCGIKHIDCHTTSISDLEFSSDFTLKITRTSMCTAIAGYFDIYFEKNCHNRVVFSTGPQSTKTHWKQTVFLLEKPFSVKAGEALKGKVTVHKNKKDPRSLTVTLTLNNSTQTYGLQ", "assay": "Radioisotope-based filter-binding (HotSpot) assay, PRMT3", "conditions": "radioisotope-based filter assay", "procedure": "(§1) Then, ^3H-SAM (final concentration 1 μM) was delivered into the reaction mixture to initiate the reaction. After incubation for 60 min at 30 °C, the reaction mixture was delivered to filter paper for detection (as assessed by scintillation). Data were analyzed using Excel and GraphPad Prism 6.0 software (GraphPad Software Inc., San Diego, CA) for IC50 curve fits using sigmoidal dose vs response-variable slope (four parameters) equations."}, "PRMT5/MEP50 complex": {"biological_target": "PRMT5/MEP50 complex (Homo sapiens, UniProt O14744)", "sequence (O14744 2-637)": "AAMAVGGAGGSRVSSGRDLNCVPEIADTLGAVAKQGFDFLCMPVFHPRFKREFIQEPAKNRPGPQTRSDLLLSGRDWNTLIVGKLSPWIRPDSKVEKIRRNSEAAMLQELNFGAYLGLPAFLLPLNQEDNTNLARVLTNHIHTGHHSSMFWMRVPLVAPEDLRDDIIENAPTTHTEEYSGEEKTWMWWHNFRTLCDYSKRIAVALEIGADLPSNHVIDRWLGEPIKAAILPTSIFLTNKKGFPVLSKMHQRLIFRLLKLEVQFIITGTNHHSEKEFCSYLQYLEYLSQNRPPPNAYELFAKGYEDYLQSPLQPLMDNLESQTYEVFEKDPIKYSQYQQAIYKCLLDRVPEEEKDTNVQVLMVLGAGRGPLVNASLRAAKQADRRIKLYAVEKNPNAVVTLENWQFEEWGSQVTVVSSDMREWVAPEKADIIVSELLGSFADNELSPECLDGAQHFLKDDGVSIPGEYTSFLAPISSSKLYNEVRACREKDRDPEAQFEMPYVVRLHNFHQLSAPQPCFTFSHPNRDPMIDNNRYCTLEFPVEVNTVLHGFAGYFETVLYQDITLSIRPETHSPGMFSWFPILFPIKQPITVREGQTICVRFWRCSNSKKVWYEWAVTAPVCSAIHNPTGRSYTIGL", "sequence (Q9BQA1 2-342 partner limits assumed)": "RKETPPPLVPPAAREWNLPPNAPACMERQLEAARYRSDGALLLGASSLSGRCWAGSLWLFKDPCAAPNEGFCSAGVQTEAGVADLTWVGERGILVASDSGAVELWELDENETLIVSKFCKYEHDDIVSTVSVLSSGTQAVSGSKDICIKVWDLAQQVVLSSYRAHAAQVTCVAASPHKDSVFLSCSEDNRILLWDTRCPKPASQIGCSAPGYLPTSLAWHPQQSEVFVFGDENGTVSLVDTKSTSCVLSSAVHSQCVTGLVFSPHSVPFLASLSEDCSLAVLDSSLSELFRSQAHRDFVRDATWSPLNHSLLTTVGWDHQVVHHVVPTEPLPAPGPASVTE", "assay": "Radioisotope-based filter-binding (HotSpot) assay, PRMT5", "conditions": "for IC50: radioisotope-based filter assay", "procedure": "as §1"}, "PRMT4": {"biological_target": "T1, PRMT4 (Homo sapiens, UniProt Q86X55)", "T1 sequence (Q86X55 2-608)": "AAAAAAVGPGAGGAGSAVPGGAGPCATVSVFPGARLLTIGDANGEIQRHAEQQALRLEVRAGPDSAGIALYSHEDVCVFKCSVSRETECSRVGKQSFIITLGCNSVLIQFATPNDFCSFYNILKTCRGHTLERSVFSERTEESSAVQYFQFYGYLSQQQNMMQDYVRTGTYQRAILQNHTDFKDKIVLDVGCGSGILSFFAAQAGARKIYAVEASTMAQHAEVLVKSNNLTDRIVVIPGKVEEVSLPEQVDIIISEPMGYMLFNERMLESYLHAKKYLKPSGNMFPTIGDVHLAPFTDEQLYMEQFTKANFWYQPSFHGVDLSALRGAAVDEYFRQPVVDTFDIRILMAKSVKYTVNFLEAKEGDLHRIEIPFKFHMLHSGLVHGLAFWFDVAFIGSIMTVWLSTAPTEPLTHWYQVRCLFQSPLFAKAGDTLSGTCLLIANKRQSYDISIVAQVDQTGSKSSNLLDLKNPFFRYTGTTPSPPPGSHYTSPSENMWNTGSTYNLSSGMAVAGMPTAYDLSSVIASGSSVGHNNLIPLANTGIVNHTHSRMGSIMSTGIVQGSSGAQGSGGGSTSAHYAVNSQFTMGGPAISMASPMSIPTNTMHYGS", "assay": "Radioisotope-based filter-binding (HotSpot) assay, PRMT4", "procedure": "as §1"}, "PRMT7": {"biological_target": "T2, PRMT7 (Homo sapiens, UniProt Q9NVM4)", "T2 sequence (Q9NVM4 2-692)": "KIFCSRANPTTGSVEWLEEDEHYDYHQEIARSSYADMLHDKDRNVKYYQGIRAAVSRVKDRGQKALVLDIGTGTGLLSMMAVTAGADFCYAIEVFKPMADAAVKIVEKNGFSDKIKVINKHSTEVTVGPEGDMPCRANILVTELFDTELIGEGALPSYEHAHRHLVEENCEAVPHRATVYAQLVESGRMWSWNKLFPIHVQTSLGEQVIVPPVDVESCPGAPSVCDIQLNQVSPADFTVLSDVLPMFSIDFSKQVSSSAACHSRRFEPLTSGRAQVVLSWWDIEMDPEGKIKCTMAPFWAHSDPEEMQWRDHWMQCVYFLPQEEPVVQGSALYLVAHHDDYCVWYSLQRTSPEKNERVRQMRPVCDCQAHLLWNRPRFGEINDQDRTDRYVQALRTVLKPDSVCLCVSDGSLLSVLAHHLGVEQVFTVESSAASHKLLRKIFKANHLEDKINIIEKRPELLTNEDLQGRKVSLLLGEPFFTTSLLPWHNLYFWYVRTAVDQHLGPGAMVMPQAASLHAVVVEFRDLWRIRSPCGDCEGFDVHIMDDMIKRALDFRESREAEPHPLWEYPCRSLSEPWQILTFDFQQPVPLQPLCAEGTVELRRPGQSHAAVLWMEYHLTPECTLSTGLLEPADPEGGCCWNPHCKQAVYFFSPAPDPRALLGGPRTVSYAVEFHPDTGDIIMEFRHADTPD", "assay": "Radioisotope-based filter-binding (HotSpot) assay, PRMT7", "conditions": "read-out: IC50 (μM) PRMT7; radioisotope-based filter assay; 5 μM GST-GAR; 1 μM 3H-SAM", "procedure": "as §1"}, "PRMT6": {"biological_target": "PRMT6 (Homo sapiens, UniProt Q96LA8)", "sequence (Q96LA8 2-375)": "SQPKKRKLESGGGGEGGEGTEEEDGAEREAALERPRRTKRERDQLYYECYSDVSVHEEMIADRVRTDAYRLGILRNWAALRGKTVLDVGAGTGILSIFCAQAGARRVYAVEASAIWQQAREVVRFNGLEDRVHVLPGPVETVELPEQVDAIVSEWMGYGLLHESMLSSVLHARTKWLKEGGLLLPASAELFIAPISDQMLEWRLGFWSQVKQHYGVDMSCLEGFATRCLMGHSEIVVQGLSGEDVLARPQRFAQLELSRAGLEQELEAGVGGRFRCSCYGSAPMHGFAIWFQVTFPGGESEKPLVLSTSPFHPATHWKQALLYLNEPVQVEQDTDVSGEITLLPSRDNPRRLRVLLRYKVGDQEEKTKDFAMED", "assay": "Radioisotope-based filter-binding (HotSpot) assay, PRMT6", "conditions": "read-out: IC50 (μM) PRMT6; radioisotope-based filter assay; 5 μM GST-GAR; 1 μM 3H-SAM", "procedure": "as §1"}, "ΔN(1–60)-PRMT8": {"biological_target": "ΔN(1–60)-PRMT8 (Homo sapiens, UniProt Q9NR22)", "sequence (Q9NR22 61-394, stated change not applied)": "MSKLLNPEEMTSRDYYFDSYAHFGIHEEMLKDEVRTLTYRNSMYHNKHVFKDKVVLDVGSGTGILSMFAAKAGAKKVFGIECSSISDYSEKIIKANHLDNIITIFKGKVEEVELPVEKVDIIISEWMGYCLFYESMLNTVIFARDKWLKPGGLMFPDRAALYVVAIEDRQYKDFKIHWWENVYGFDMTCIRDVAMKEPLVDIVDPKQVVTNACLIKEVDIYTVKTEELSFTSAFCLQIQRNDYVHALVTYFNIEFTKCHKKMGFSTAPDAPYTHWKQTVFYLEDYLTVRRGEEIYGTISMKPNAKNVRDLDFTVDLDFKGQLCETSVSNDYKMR", "assay": "Radioisotope-based filter-binding (HotSpot) assay, PRMT8", "conditions": "read-out: IC50 (μM) PRMT8, 5 μM histone H4, 1 μM 3H-SAM", "procedure": "as §1"}, "PRMT1": {"biological_target": "PRMT1 (Homo sapiens, UniProt Q99873)", "sequence (Q99873 2-371)": "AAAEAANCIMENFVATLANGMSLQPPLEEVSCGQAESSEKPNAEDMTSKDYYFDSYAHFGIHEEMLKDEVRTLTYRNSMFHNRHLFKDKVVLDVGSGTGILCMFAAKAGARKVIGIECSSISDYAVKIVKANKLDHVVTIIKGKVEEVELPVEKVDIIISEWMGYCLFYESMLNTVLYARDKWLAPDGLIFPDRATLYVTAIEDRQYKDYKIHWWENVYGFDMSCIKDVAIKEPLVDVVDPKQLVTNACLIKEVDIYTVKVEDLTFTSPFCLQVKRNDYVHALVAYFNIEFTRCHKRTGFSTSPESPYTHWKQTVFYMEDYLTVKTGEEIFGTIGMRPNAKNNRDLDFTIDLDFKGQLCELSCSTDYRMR", "assay": "Radioisotope-based filter-binding (HotSpot) assay, PRMT1", "conditions": "for IC50: radioisotope-based filter assay", "procedure": "as §1"}, "[1]": {"conditions": "on increasing the linker between 4-hydroxy-2-naphthoate and guanidine (values equal the ratio to the IC50 of 12c)"}}, "note": "Where two headings read alike, the source gives them in different places.", "data": [{"smiles": "COC(=O)c1cc(O)c2cc(NC(=O)NCCCCCCCNC(=N)NC[C@H]3O[C@@H](n4cnc5c(N)ncnc54)[C@H](O)[C@@H]3O)ccc2c1", "note": "[12e, Methyl 6-(3-(7-(3-(((2R,3S,4R,5R)-5-(6-Amino-9H-purin-9-yl)-3,4-dihydroxytetrahydrofuran-2-yl)methyl)guanidino)heptyl)ureido)-4-hydroxy-2-naphthoate]", "values": [{"measurement": "IC50", "setting": "PRMT3; read-out: IC50 (μM) PRMT3, 5 μM histone H4, 1 μM 3H-SAM", "result": 12.4, "unit": "µM"}, {"measurement": "IC50", "setting": "PRMT3; read-out: IC50 PRMT3 (Figure 5 heatmap)", "result": 12.4, "unit": "µM"}, {"measurement": "gain in the inhibitory activity against PRMT5", "setting": "PRMT5/MEP50 complex; [1]", "result": 15.2, "unit": "fold"}, {"measurement": "IC50", "setting": "PRMT5/MEP50 complex; read-out: IC50 (μM) PRMT5, 5 μM histone H2A, 1 μM 3H-SAM", "result": 3.38, "unit": "µM"}, {"measurement": "IC50", "setting": "PRMT5/MEP50 complex; read-out: IC50 PRMT5 (Figure 5 heatmap)", "result": 3.38, "unit": "µM"}, {"measurement": "LE", "setting": "PRMT4; ligand efficiency for PRMT4 calculated from IC50 as a surrogate for KD", "result": 0.20}, {"measurement": "gain in the inhibitory activity against PRMT4", "setting": "PRMT4; [1]", "result": 2.4, "unit": "fold"}, {"measurement": "selectivity index for PRMT4 vs other PRMTs: PRMT1", "setting": "PRMT4; ratio IC50 PRMT1 / IC50 PRMT4, rounded to nearest integer", "result": 15}, {"measurement": "selectivity index for PRMT4 vs other PRMTs: PRMT3", "setting": "PRMT4; ratio IC50 PRMT3 / IC50 PRMT4", "result": 70}, {"measurement": "selectivity index for PRMT4 vs other PRMTs: PRMT5", "setting": "PRMT4; ratio IC50 PRMT5 / IC50 PRMT4", "result": 19}, {"measurement": "selectivity index for PRMT4 vs other PRMTs: PRMT6", "setting": "PRMT4; ratio IC50 PRMT6 / IC50 PRMT4", "result": 202}, {"measurement": "selectivity index for PRMT4 vs other PRMTs: PRMT7", "setting": "PRMT4; ratio IC50 PRMT7 / IC50 PRMT4", "result": 4}, {"measurement": "selectivity index for PRMT4 vs other PRMTs: PRMT8", "setting": "PRMT4; ratio IC50 PRMT8 / IC50 PRMT4", "result": 33}, {"measurement": "IC50", "setting": "PRMT4; read-out: IC50 (μM) PRMT4, radioisotope-based filter assay, 5 μM histone H3, 1 μM 3H-SAM", "result": 0.176, "unit": "µM"}, {"measurement": "SI PRMT1 (Figure 5 heatmap)", "setting": "PRMT4; selectivity index for PRMT4 over PRMT1", "result": 15, "unit": "fold"}, {"measurement": "SI PRMT3 (Figure 5 heatmap)", "setting": "PRMT4; selectivity index for PRMT4 over PRMT3", "result": 70, "unit": "fold"}, {"measurement": "SI PRMT5 (Figure 5 heatmap)", "setting": "PRMT4; selectivity index for PRMT4 over PRMT5", "result": 19, "unit": "fold"}, {"measurement": "SI PRMT6 (Figure 5 heatmap)", "setting": "PRMT4; selectivity index for PRMT4 over PRMT6", "result": 202, "unit": "fold"}, {"measurement": "SI PRMT7 (Figure 5 heatmap)", "setting": "PRMT4; selectivity index for PRMT4 over PRMT7", "result": 4, "unit": "fold"}, {"measurement": "SI PRMT8 (Figure 5 heatmap)", "setting": "PRMT4; selectivity index for PRMT4 over PRMT8", "result": 33, "unit": "fold"}, {"measurement": "IC50", "setting": "PRMT7", "result": 0.631, "unit": "µM"}, {"measurement": "IC50", "setting": "PRMT6", "result": 35.6, "unit": "µM"}, {"measurement": "IC50", "setting": "ΔN(1–60)-PRMT8", "result": 5.84, "unit": "µM"}, {"measurement": "gain in the inhibitory activity against PRMT1", "setting": "PRMT1; [1]", "result": 3.2, "unit": "fold"}, {"measurement": "IC50", "setting": "PRMT1; read-out: IC50 (μM) PRMT1, 5 μM histone H4, 1 μM 3H-SAM", "result": 2.6, "unit": "µM"}, {"measurement": "IC50", "setting": "PRMT1; read-out: IC50 PRMT1 (Figure 5 heatmap)", "result": 2.6, "unit": "µM"}]}]}
